Laboratory results taken from patent US5563176A (priority 1994, dated 1996).
≈ marks a conversion by molar mass, not a printed value. Where “and” joins values, the source holds several entries; their conditions need not be identical. Equal entries are not always repeated. Where two headings read alike, the source gives them in different places.

Legend:
HL60 cells (myeloid) = test: cells; type: cell-based, human
8392 cells (B-cell) = test: cells; type: cell-based; details: 2 h, read-out: Two hour IC50
MV522 cells = test: cells; type: cell-based, human
HL60 cells = test: cells; type: cell-based; details: Homo sapiens, HL-60, 48 h, read-out: 48 hour IC50
8392 cells = test: cells; type: cell-based; details: 48 h, read-out: 48 hour IC50
MV522 = test: cells; type: cell-based; details: Homo sapiens, MV522, 48 h, read-out: 48 hour IC50
[1] = tested on: MX-1 mammary carcinoma xenograft; test: MX-1 human breast tumor xenograft in nude mice; type: in vivo
Source text: (§1) Nude mice are implanted subcutaneously (s.c.) by trocar with fragments of MX-1 mammary carcinomas harvested from s.c. growing MX-1 tumors in nude mice hosts. When tumors are approximately 5 mm×5 mm in size (usually about ten days after inoculation), the animals are pair-matched into treatment and control groups. Each group contains 10 tumored mice, each of which is eartagged and followed individually throughout the experiment. The administration of drugs or vehicle begins the day the animals are pair-matched (day 1). The doses, route of drug administration and schedule are selected as appropriate for the study in question, If the maximum tolerated dose (MTD) of an agent is not known, it was determined in an initial dosing experiment in non-tumored mice. In a typical experiment, drugs are given at their MTD and 1/2 MTD doses i.p. on a daily×5 schedule.
The experiment is usually terminated when control tumors reach a size of 2-3 g. Mice are weighed twice weekly, and tumor measurements are taken by calipers twice weekly, starting on day 1. These tumor measurements are converted to mg tumor weight by a well-known formula, and from these calculated tumor weights the termination date can be determined. Upon termination, all mice are weighed, sacrificed, and their tumors excised. Tumors, are weighed, and the mean tumor weight per group is calculated. In this model, the mean treated tumor weight/mean control tumor weight×100% (T/C) is subtracted from 100% to give the tumor growth inhibition (TGI) for each group).
Some drugs cause minor shrinkage in the MX-1 model. With these agents, the final weight of a given tumor is subtracted from its own weight at the start of treatment on day 1. This difference divided by the initial tumor weight is the % shrinkage. A mean % tumor shrinkage can be calculated from data from the mice in a group that experienced MX-1 regressions. If the tumor completely disappears in a mouse, this is considered a complete regression or complete tumor shrinkage.
(§2) HMAF was evaluated against the MX-1 mammary carcinoma xenograft at the MTD of 7.5 mg/kg, and also at 5.0 mg/kg, i.p. daily×5, delivered in 10% cremophor, 20% ethanol and 70% isotonic saline. The 7.5 mg mg/kg dose caused no lethality, or unacceptable weight loss to the nude mice (day 8 weight loss=9.5%). […] The 5.0 mg/kg dose produced 2 complete regressions, and an average 88% tumor shrinkage in the other 8 mice.

[2] = tolerability in nude mice (MX-1 study); type: in vivo
Source text: as §1, §2

P388 leukemia = P388 leukemia in mice; type: in vivo, murine
Protocol: (§3) HMAF was also evaluated against P388 leukemia in mice. The tumor inoculum is prepared by removing ascites fluid containing P388 cells from tumored B6D2F1 mice, centrifuging the cells, and then resuspending the leukemia cells in saline. Mice receive 1×10^6 P388 cells i.p. on day 0. Initial dosing experiments on a daily×5 schedule in B6D2F1 mice established the MTD of HMAF as 7.5 mg/kg. HMAF was tested at doses of 7.5 and 5.0 mg/kg vs. the P388 leukemia model. […] A T/C value of 150 means that treated mice lived 50% longer than the controls. Weight loss at the higher dose was 13% on day 8, again confirming that 7.5 mg/kg is the MTD for this agent on the daily×5 schedule.

[3] = dosing/tolerability in B6D2F1 mice; type: in vivo
Protocol: as §3

B16 melanoma [4] = test: B16 melanoma in mice; type: in vivo; details: same doses as P388
B16 melanoma [5] = test: in vitro activity, B16; type: cell-based
HT-29 human colon tumor = test: in vitro activity, HT-29; type: cell-based; details: HT-29, HT29
murine P388 cells = test: in vitro activity, P388; type: cell-based
MCF-7 human breast tumor = test: in vitro activity, MCF-7; type: cell-based
[6] = tested on: human lung adenocarcinoma MV522; details: in vivo
[7] = tested on: human lung adenocarcinoma MV522; test: animal or person; details: MV522, ip, read-out: life span
HL-60 cells = test: cells; type: cell-based, human; details: Homo sapiens, HL-60
[8] = kinetics of the reaction with dilute HCl; type: physicochemical; details: illudin M
Source text: Consistent with the above hypothesis are the results of the kinetics of the reaction of illudin M and dehydroilludin M with dilute HCl. […] In the reaction with dehydroilludin M, no intermediate could be detected by NMR spectroscopy. Presumably it formed too slowly and is too short-lived to be detected.

Dunning leukemia = details: NCI DCT; cited from earlier work

With `CC1=C(CO)C2=C(C)C3(CC3)[C@@](C)(O)C(=O)C2=C1` [6-hydroxymethylacylfulvene] the “toxicity to target tumor cells” value (HL60 cells (myeloid)) was “markedly toxic”, the IC50 (HL60 cells (myeloid); Homo sapiens, HL-60, 2 h, read-out: Two hour IC50) was 150 ± 11 nM and the IC50 (8392 cells (B-cell)) was 7.36 µM. The IC50 (MV522 cells; Homo sapiens, MV522, 2 h, read-out: Two hour IC50) was 114 ± 28 nM, the “toxicity to target tumor cells” value (MV522 cells; MV522, 2 and 48 hour) was “markedly toxic” and the IC50 (HL60 cells) was 4 ± 1 nM. For the same compound, the IC50 (8392 cells) was 76 ± 4 nM, the IC50 (MV522) was 73 ± 8 nM and the complete regressions ([1]; 5.0 mg/kg i.p. daily×5, of 10 mice) was 2. For the same compound, the average tumor shrinkage ([1]; 5.0 mg/kg i.p. daily×5, other 8 mice) was 88%, the complete tumor regressions ([1]; 7.5 mg/kg i.p. daily×5, of 10 mice) was 4 mice and the average tumor shrinkage ([1]; 7.5 mg/kg i.p. daily×5, other 6 mice) was 91%. For the same compound, the “activity in MX-1 xenograft” value ([1]; in vivo) was “highly active”, the lethality ([2]; 7.5 mg/kg i.p. daily×5) was “no lethality” and the weight loss ([2]; 7.5 mg/kg i.p. daily×5, day 8) was 9.5%. The MTD ([2]; mouse, in vivo, ip, i.p. daily×5, nude mice) was 7.5 mg/kg, the “treated/control (T/C)” value (P388 leukemia; 5.9 mg/kg) was 137 and the “treated/control (T/C)” value (P388 leukemia; 6.5 mg/kg) was 140. The weight loss ([3]; higher dose, day 8, P388 study) was 13%, the MTD ([3]; mouse, in vivo, daily×5, B6D2F1 mice) was 7.5 mg/kg and the “activity against B16 melanoma in mice” value (B16 melanoma [4]) was “inactive”. For the same compound, the IC50 (B16 melanoma [5]; B16, listed as HMAF) was 4.65 µg/mL and 3.73 µg/mL, the IC50 (B16 melanoma [5]; Mus musculus, B16, B16, read-out: IC50) was 3.73 to 4.65 µg/mL (≈ 15.1 to 18.9 µM) and the IC50 (HT-29 human colon tumor) was 0.05 µg/mL (≈ 0.203 µM). The IC50 (murine P388 cells; Mus musculus, P388, P388, read-out: IC50) was 0.16 to 0.32 µg/mL (≈ 0.65 to 1.3 µM), the IC50 (murine P388 cells; P388, listed as HMAF) was 0.165 µg/mL and 0.319 µg/mL and the IC50 (MCF-7 human breast tumor; Homo sapiens, MCF7, MCF-7, read-out: IC50) was 0.036 to 0.07 µg/mL (≈ 0.146 to 0.284 µM). The IC50 (MCF-7 human breast tumor; MCF-7, listed as HMAF) was 0.036 µg/mL and 0.043 µg/mL, the “efficacy in this model” value [6] was “markedly increased the life span” and the “life span versus control” value [6] was “lived significantly longer”. The “toxic side effects (activity, weight gain, food or water intake)” value [6] was “no evidence of toxic side effects”, the tumor growth response ([6]; 10 mg/kg) was “Tumor regression” and the animals alive ([6]; ip, 10 mg/kg) was 2 animals alive, ? cured. The life span ([6]; ip, 10 mg/kg) was 233 ± 18% and 232 ± 20% and > 204%, the response vs control in vivo at 1 mg/kg [7] was 135 ± 10% and the response vs control in vivo at 5 mg/kg [7] was 154 ± 13%.
For `CC1=C2C(=CC(C)(C)C2O)C(=O)[C@](C)(O)C12CC2` (stereo partly shown) [Illudin M, reference compound], the IC50 (HL-60 cells) was 10 nM, the half-life [8] was 148 min and the “k, pseudo first-order reaction” value [8] was 4.7×10^-3. For the same compound, the “life span of rats with Dunning leukemia” value (Dunning leukemia) was “significantly increased the life span”.
